# Patent US11266743B2, “Peptide compositions and methods of use thereof” (priority 2017, dated 2022)
# Square brackets hold non-standard residues; d marks the D form. Ends that are not written are not given here.
# Columns and labels:
# Type in all cases: cell-based
# [1] = test system: S. aureus; experiment: Radial diffusion in the presence of RBCs; set-up: key: The ↑ represents the improvement in performance that would be desired for a viable in vivo antimicrobial peptide; ↓: The symbol represents a regression in desired behavior; *=p<0.05; **=p<0.01; ***=p<0.001; conditions: change versus parent sequence; paired t-test
# Experimental: Underlay agarose was prepared by adding 5 g of low EEO agarose and 0.03 g of TSB to 500 mL of 10 mM phosphate buffer (pH=7.4). Overlay agarose was prepared by adding 5 g of low EEO agarose and 30 g of TSB to 500 mL of 10 mM phosphate buffer (pH=7.4). Both solutions were heated until the agarose melted and then were autoclaved. To a rectangular, one-well plate, 20 mL of underlay agarose, inoculated with 8×10^6 CFUs of bacteria, was added. A sterile, 96-well plate replicator from Sigma-Aldrich was set in the molten agarose and removed one the agarose solidified. Antibiotic was prepared at 4 times the final desired concentration. For the antibiotic standard, a serial dilution of 3:4 across a 96-well plate was performed followed by 1:4 dilution with PBS. Otherwise, the peptide was diluted to 20 μM with RBCs and/or serum to give between 2% (1×10^8 cells/mL) and 20% (1×10^9 cells/mL). Solutions were incubated with gentle shaking for 30 minutes at 37° C. […]. Overlay was added, and the plate was incubated upside down overnight. Surface growth was cleared, the plates were sterilized with 25% methanol and 5% acetic acid. Zones of inhibition were photographed and analyzed using ImageJ. (FIG. 21)
# (§1) The engineered peptide sequences and their derivation from parent sequences is shown, along with the underlying hypothesis described for the first set of peptides (Table 4) and the second set (Table 5). We performed statistical testing for performance in antimicrobial assays in the presence and absence of RBCs, as well as for cytotoxicity. The broth dilution results were tested using a two sample t-test (N=6-22). The radial diffusion results were tested using a paired t-test (N=4). The cytotoxicity results were tested using a paired t-test (N=3). The ↑ represents the improvement in performance that would be desired for a viable in vivo antimicrobial peptide. This corresponds to a decrease in MIC values (increased potency) and decreased cytotoxicity. The symbol represents a regression in desired behavior. (*=p<0.05, **=p<0.01, ***=p<0.001).
# [2] = test system: HeLa, RAW264.7, HepG2, and MCF-7 cells; experiment: TAMRA delivery assay (flow cytometry, confocal microscopy); conditions: 0.5 μM CPP-TA + 4.5 μM CPP-C, 30 minutes at 4° C., 22° C., or 37° C.
# Experimental: To determine the effect of the PNA cargo on delivery, we labeled CPPs, lacking the PNA705 cargo, with the fluorophore TAMRA on a C-terminal cysteine residue (CPP-TA) and measured delivery to multiple cell types. TAMRA-labelled CPPs, mixed with unlabeled CPPs at a 1:10 ratio in serum-free DMEM for a final concentration of 5 μM total peptide, was added to HeLa, RAW264.7, HepG2, and MCF-7 cells in 12-well cell culture plates and incubated for 30 minutes at 4° C., 22° C., or 37° C. prior to flow cytometric analysis (FIGS. 9-16). […] Delivery of TAMRA was verified by confocal microscopy for each cell type.
# Hela, RAW264.7, HCT116, HepG2, and MCF-7 cells were plated in 12-well plates at 100,000 cells/well. After 24 hours, cells were gently washed in PBS, topped with 500 μl of CPP-TA solution containing 0.5 μM CPP-TA+4.5 uM CPP-C in sfDMEM without phenol red, and incubated for 30 min at either 4° C., 23° C., or 37° C. The incubation solution was aspirated and cells were treated with 100 μl 0.025% Trypsin for 3 minutes at 23° C. 500 μl DMEM containing 2% FBS, 125 nM Sytox Green, and 20 mM HEPES was used to suspend the cells. Cells were transferred to a filter-topped flow cytometry tube and analyzed on a BD™ LSR II flow cytometer. Cells displaying a normal morphology were gated and first analyzed for GFP fluorescence using the 488 nM laser. GFP negative cells were used to generate a histogram of TAMRA fluorescence, measured with the 543 nM laser.
# Cells were treated as described above for the TAMRA delivery assay and immediately imaged to avoid artifacts resulting from fixation. The distribution of TAMRA and Sytox Green was analyzed using a confocal scanning Nikon Eclipse Ti2 inverted microscope using a 40× oil-immersion objective. Sytox Green was excited using the 488 nM laser and TAMRA was excited using the 543 nM laser.
# [3] = test system: Hela pTRE-LucIVS2 cells; experiment: ALAMARBLUE toxicity assay of CPP-PNA705; conditions: 10 μM CPP-PNA705 conjugate, after 24 hours
# Experimental: CPP-PNA705 cytotoxicity was assessed using several methods known in the art. A Lactate Dehydrogenase (LDH) assay (FIG. 5A) measured the acute cytotoxicity and detects LDH released by cells because of membrane damage resulting from exposure to the CPPs. An ALAMARBLUE® assay (FIG. 5B) and a Bicinchoninic Acid (BCA) Assay (FIG. 5C) both measure the impact of exposure after 24 hours. In the ALAMARBLUE®, assay some reduction in metabolic activity was detected in Hela705 cells treated with 20 μM CPP-PNA705 concentrations for 1 hour.
# Hela pTRE-LucIVS2 cells were plated in 96-well plates at 10,000 cells/well. After 24 hours, cells were treated with CPP constructs for 1 Hr in sfDMEM at 37° C., washed in PBS, and allowed to recover for 24 hours in 100 μl complete media. 10 μl ALAMARBLUE® (ThermoFisher) was added to each well and cells were incubated fo4r 2 Hrs at 37° C. Reduction of ALAMARBLUE® was determined by fluorescence at […].
# [4] = test system: Hela cells stably transfected with mCherry and GFP1-10; experiment: Split GFP assay (GFP-11 delivery); conditions: for GFP-11 delivery: all concentrations and temperatures studied; for GFP fluorescence level / GFP fluorescence above background: 10 μM
# Experimental: To test the ability of CPPs to deliver other cargoes, specifically a protease-sensitive peptide cargo, we modified the well-known split-GFP assay. CPPs were tested for the ability to deliver the polar 16-residue GFP-11 peptide across the membrane barrier. This peptide rescues the fluorescence of the cytosolic endogenous, non-fluorescent GFP1-10 protein. Here, we stably transfected Hela cells with a plasmid containing the full length mCherry and the non-fluorescent GFP1-10. Following incubation with CPP-GFP-11 constructs at multiple concentrations and temperatures for 30 minutes in serum free DMEM, cells were analyzed by flow cytometry for mCherry and GFP fluorescence (FIG. 17). Live cells expressing mCherry (˜50% of the total cells) were gated and their GFP fluorescence was analyzed. Unlike the luciferase splice correction assay where a single corrected mRNA transcript serves as template for many molecules of functional luciferase, the split GFP assay is stoichiometric; a single GFP-11 peptide can bind to a single GFP1-10 protein producing a finite fluorescent response.
# Hela cells were transfected with p_mCherry-GFP1-10 (Addgene plasmid #78591) using LIPOFECTAMINE® 3000 (ThermoFisher). Single mCherry positive cells were sorted into 96-well plates using a BD™ FACSARIA™ cell sorter and colonies were maintained under G418 selection at […]. Stably transfected cells were plated in 12-well plates at 100,000 cells/well and grown overnight in complete DMEM. Cells were washed in PBS and incubated in 500 μl of CPP-GFP-11 solution at variable concentrations at 23° C. and 37° C. for 30 minutes. The CPP-GFP-11 solution was aspirated and 100 μl of 0.025% trypsin solution was added to each well. After detachment, cells were suspended in 500 μL of PBS+2% FBS and 20 mM HEPES. Cells were analyzed using a BD™ LSRII flow cytometer. Cells displaying a normal morphology were gated and first analyzed for mCherry fluorescence using the 543 nM laser. mCherry+ cells were used to generate a histogram of GFP fluorescence measured with the 488 nM laser.
# [5] = test system: human RBCs; experiment: Hemolysis assay; set-up: key: The ↑ represents the improvement in performance that would be desired for a viable in vivo antimicrobial peptide; ↓: The symbol represents a regression in desired behavior; *=p<0.05; **=p<0.01; ***=p<0.001; conditions: change versus parent sequence; ↑ = improvement (decreased cytotoxicity); paired t-test
# Experimental: Peptide was serially diluted in PBS starting at a concentration of 100 μM. The final volume of each peptide in each well was 50 μL. To each well, 50 μL of RBCs in PBS at 2×10^8 cells/mL was added. As a positive lysis control, 1% TRITON™ was used. The mixtures were incubated at 37° C. for 1 hour, after which they were centrifuged at 1000×g for 5 minutes. After centrifugation, 10 μL of supernatant was transferred to 90 μL of DI H2O in a fresh 96-well plate. The absorbance of released hemoglobin at 410 nm was recorded and the fractional hemolysis was calculated based on the 100% and 0% lysis controls. (FIGS. 22, 23, and 26)
# as §1
Substance,Radial Diffusion vs. S. aureus [1],Hemolysis [5],further results
RRWARRLFFAYRR [RAT1],↑Radial Diffusion vs.,–,–
KKGWAKKLAFAFGKK [D-KON],↓Radial diffusion vs.,–,–
GRKKRWFRRRRMKWKK [CPP-2],–,–,"TAMRA delivery (words, rank order) [2]: CPP-2»CPP-3=CPP-1>CPP-4>TAT=penetratin; reduction in metabolic activity [3]: 10%; GFP-11 delivery [4]: deliver GFP-11 to more cells than Tat and penetratin"
RRGWARRLAFAFGRR [D-RAT4],↑Radial Diffusion vs.,–,–
CPP-3-GFP-11: CPP-3 linked to the 16-residue GFP-11 peptide (SEQ ID NO: 12) (RIKRRFRRLRPKWKKRDHMVLHEYVNAAGIT),–,–,GFP fluorescence level [4]: background fluorescence levels
RRGWARRLRLAFAFGRR [RAT5],↑Radial Diffusion vs.,↓Hemolysis*,–
RRWNLALTLTYYRR [RAT2],–,↓Hemolysis*,–
RRGWAFRRALAYGRR [D-GNS2],↑Radial diffusion vs.,↓Hemolysis**,–
RRGWARRLAFAFGRR [RAT4],↑Radial Diffusion vs.,↑Hemolysis*,–
Tat(D)-GFP-11: D-amino acid version of Tat attached to normal L-amino acid GFP-11 (G[dR][dK][dK][dR][dR][dQ][dR][dR][dR][dP][dP][dQ]RDHMVLHEYVNAAGIT) [reference compound],–,–,GFP fluorescence ([4]; concentrations lower than 40 μM): just above background
RRGWARRLAFAFAFGRR [RAT6],–,↓Hemolysis*,–
CPP-2-GFP-11: CPP-2 linked to the 16-residue GFP-11 peptide (SEQ ID NO: 12) (GRKKRWFRRRRMKWKKRDHMVLHEYVNAAGIT),–,–,GFP fluorescence level [4]: background fluorescence levels
RRGWARRLFFAYGRR [D-DBS1],↑Radial diffusion vs.,↓Hemolysis*,–
RRGWARRLAFGRR [RAT7],–,↑Hemolysis**,–
CPP-1-GFP-11: CPP-1 linked to the polar 16-residue GFP-11 peptide (SEQ ID NO: 12) (RKKRWFRRRRPKWKKRDHMVLHEYVNAAGIT),–,–,GFP fluorescence above background ([4]; 37° C.): 44%; GFP fluorescence above background ([4]; room temperature): 72%
RIKRRFRRLRPKWKK [CPP-3],–,–,"TAMRA delivery (words, rank order) [2]: CPP-2»CPP-3=CPP-1>CPP-4>TAT=penetratin; reduction in metabolic activity [3]: little effect; GFP-11 delivery [4]: deliver GFP-11 to more cells than Tat and penetratin"
RRGWALRLVLAYGRR [RAT3],–,↓Hemolysis*,–
CPP-1(D)-GFP-11: D-amino acid version of CPP-1 attached to normal L-amino acid GFP-11 ([dR][dK][dK][dR][dW][dF][dR][dR][dR][dR][dP][dK][dW][dK][dK]RDHMVLHEYVNAAGIT),–,–,"D-form CPP versus L-form CPP, GFP-11 delivery [4]: outperformed CPP-1-GFP-11 under all other conditions"
